# Experiments:
# [1] = test system: Human dermal fibroblasts; test: Western blot analysis of protein levels of ECM components after atRA treatment; format: cell-based; conditions: fold induction (+) or suppression (−) vs control; 10^-7 M, 24 hours
# Description: (§1) Human dermal fibroblasts were grown in DMEM cell culture media containing 10% fetal bovine serum and 1% penicillin/streptomycin (Invitrogen). For all experiments, third-passage fibroblasts were used one day after reaching confluence. […] After 24 hour treatment RNA and protein was isolated and analyzed for the expression of components of ECM and transcriptional regulators.
# Cells were lysed in Cell Disruption Buffer supplied with the Paris kit (Ambion) and protein concentration was determined using Bradford reagent (Pierce). Proteins were separated on 10% SDS-PAAG and transferred into the PVDF membrane (Biorad). […] Signal was detected using ECL reagent (Pierce).
# [2] = test system: skin fibroblasts from 30 individuals; test: Combined score of expression stimulation of 5 genes in fibroblast isolates (FIG. 1); format: cell-based, human; conditions: 24 hour treatment, atRA 10^-7 M, Matrixyl 1 μM, KappaElastin 1 μM
# Description: as §1
# (§2) Total RNA from various human tissues was purified using RNAwiz (Ambion, USA) and subjected to subsequent DNase I treatment using the DNA-Free kit (Ambion). Total RNA from cancer cells was purified by using 4PCRmini kit (Ambion). First-strand cDNAs were synthesized with Superscript III reverse transcriptase (Invitrogen, USA) and 5 μg of total RNA using oligo d(T) priming in a final reaction volume of 50 μL
# The cDNA was amplified by PCR using the 2.5 U Hot-Firepol (Solis BioDyne, Estonia) and buffer Yellow (Naxo, Estonia). Reaction was performed in a 10 ul volume, using 0.5 ul cDNA as a template. Following primer sets were designed for this study:
# The combined score of expression stimulation of 5 genes was calculated and blotted for each fibroblast isolate. […] This biological variation provides a good biological rational to use molecular diagnostics for matching cosmetics product and skin cells of specific individual (personalized cosmetics).
# [3] = test system: dermal fibroblasts isolated from 17 individuals; test: Real time RT-PCR of ECM components, nuclear hormone receptors and coregulators in fibroblasts from 17 individuals; format: cell-based, human
# Description: Total RNA was extracted from cells using RNA aqueous kit (Ambion, USA). First-strand cDNAs were synthesized with Superscript III reverse transcriptase (Invitrogen, USA) and 1 μg of total RNA using oligo d(T) priming in a final reaction volume of 40 μL.
# Levels of specific mRNAs were measured by real-time RT-PCR using Platinum SYBR Green qPCR SuperMix UDG (Invitrogen) according the protocol on the LightCycler 2.0 (Roche, US). The cycling program steps were: for one cycle 50° C. 2 min, for one cycle 95° C. 2 min and for 45 cycles: 95° C. 10 s, 60° C. 10 s, 72° C. 10 s. All samples were run in triplicates. Results were analyzed with the comparative Ct method (from Applied Biosystems manual; Livak and Schmittgen, 2001). Every sample was normalized for the housekeeping gene GAPDH. Transcript levels in the atRA and TGFb1 treated samples were compared to control samples.
# [4] = test system: Human dermal fibroblasts; test: RT-PCR analysis of mRNA levels of ECM components after atRA treatment; format: cell-based; conditions: fold induction (+) or suppression (−) vs control; 10^-7 M, 24 hours
# Description: as §1, §2
# The cDNA was amplified by PCR using the 2.5 U Hot-Firepol (Solis BioDyne, Estonia) and buffer Yellow (Naxo, Estonia). Reaction was performed in a 10 ul volume, using 0.5 ul cDNA as a template. Following primer sets (Table 21) were designed for this study:
# The thermal cycling protocols were as follows: initial denaturation of template DNA and heat-activation of polymerase (15 min at 95° C.) followed by 40 cycles denaturation (30 sec at 95° C.) annealing (58° C.) and extension (90 sec). PCR products were analysed on a 1% agarose gel. For sequencing, PCR reactions were purified using PCR purification kit (Qiagen, USA) and subcloned into TOPO TA cloning vector. Fragments were sequenced at GATC Biotech sequencing services (Germany).
# [5] = fibroblasts from 17 individuals, 1 μM, 24 hours
structure (smiles),measurement,setting,value
"CC1=C(/C=C/C(C)=C/C=C/C(C)=C/C(=O)O)C(C)(C)CCC1 [all trans retinoic acid, all-trans retinoic acid]",COL1A1 protein level,[1],2 fold
same,COL1A2 protein level,[1],2 fold
same,COL2A1 protein level,[1],3 fold
same,COL3A1 protein level,[1],2 fold
same,COL4A1 protein level,[1],1 fold
same,COL4A2 protein level,[1],1 fold
same,COL4A3 protein level,[1],1 fold
same,COL4A4 protein level,[1],1 fold
same,COL5A1 protein level,[1],1 fold
same,Elastin ELN protein level,[1],2 fold
same,Lysyl oxidase protein level,[1],3 fold
same,MMP2 protein level,[1],2 fold
same,MMP-11 protein level,[1],3 fold
same,decorin protein level,[1],4 fold
same,"combined score of expression stimulation of 5 genes (COL1A1, COL2A1, elastin, proteoglycan, TIMP1) per fibroblast isolate",[2],3 groups of fibroblasts that have different response
same,"variation between individuals of effect on expression of nuclear hormone receptors, compared with co-regulators","[3]; cells treated with atRA, 17 individuals",less variation
same,"CBP expression in RA treatment compared to control, from-to between individuals",[3]; [5],(from −2.15 to 3.17) fold
same,"COL1A1 expression in RA treatment compared to control, from-to between individuals",[3]; [5],(from −6.25 to 3.25) fold
same,"COL1A2 expression in RA treatment compared to control, from-to between individuals",[3]; [5],(from −3.13 to 1.83) fold
same,"COL3A1 expression in RA treatment compared to control, from-to between individuals",[3]; [5],(from −2.28 to 2.89) fold
same,"COL4A1 expression in RA treatment compared to control, from-to between individuals",[3]; [5],(from −3.97 to 2.18) fold
same,"COL5A1 expression in RA treatment compared to control, from-to between individuals",[3]; [5],(from −4.76 to 2.39) fold
same,"COL5A2 expression in RA treatment compared to control, from-to between individuals",[3]; [5],(from −1.41 to 2.94) fold
same,"CTGF expression in RA treatment compared to control, from-to between individuals",[3]; [5],(from −2.4 to 2.64) fold
same,"ELN expression in RA treatment compared to control, from-to between individuals",[3]; [5],(from −2.44 to 3.02) fold
same,"FN 1 transcr.v.1 expression in RA treatment compared to control, from-to between individuals",[3]; [5],(from −3.63 to 1.14) fold
same,Individual variation of gene expression in RA treatment: CBP,[3]; [5],5.32 fold
same,Individual variation of gene expression in RA treatment: COL1A1,[3]; [5],9.5 fold
same,Individual variation of gene expression in RA treatment: COL1A2,[3]; [5],4.96 fold
same,Individual variation of gene expression in RA treatment: COL3A1,[3]; [5],5.17 fold
same,Individual variation of gene expression in RA treatment: COL4A1,[3]; [5],6.15 fold
same,Individual variation of gene expression in RA treatment: COL4A4,[3]; [5],1.63 fold
same,Individual variation of gene expression in RA treatment: COL5A1,[3]; [5],7.15 fold
same,Individual variation of gene expression in RA treatment: COL5A2,[3]; [5],4.35 fold
same,Individual variation of gene expression in RA treatment: CTGF,[3]; [5],5.04 fold
same,Individual variation of gene expression in RA treatment: ELN,[3]; [5],5.46 fold
same,Individual variation of gene expression in RA treatment: FN 1 transcr.v.1,[3]; [5],4.77 fold
same,"Individual variation of gene expression in RA treatment: MMP1, collagenase 1",[3]; [5],7.09 fold
same,Individual variation of gene expression in RA treatment: MMP2 gelatinase,[3]; [5],5.05 fold
same,Individual variation of gene expression in RA treatment: MMP3 stromelysin,[3]; [5],6.4 fold
same,Individual variation of gene expression in RA treatment: MMP7,[3]; [5],16.46 fold
same,"Individual variation of gene expression in RA treatment: MMP10, stromelysin 2",[3]; [5],12 fold
same,Individual variation of gene expression in RA treatment: MMP19,[3]; [5],3.41 fold
same,Individual variation of gene expression in RA treatment: NCOA1,[3]; [5],5.68 fold
same,Individual variation of gene expression in RA treatment: NCOA2,[3]; [5],5.63 fold
same,Individual variation of gene expression in RA treatment: NCOA3,[3]; [5],6.16 fold
same,Individual variation of gene expression in RA treatment: NCOA5,[3]; [5],3.1 fold
same,Individual variation of gene expression in RA treatment: NCOA6,[3]; [5],3.43 fold
same,Individual variation of gene expression in RA treatment: NCOA7,[3]; [5],4.44 fold
same,Individual variation of gene expression in RA treatment: NCOR1,[3]; [5],4.2 fold
same,Individual variation of gene expression in RA treatment: PC4,[3]; [5],3.57 fold
same,Individual variation of gene expression in RA treatment: PPARG,[3]; [5],4.59 fold
same,Individual variation of gene expression in RA treatment: RARA,[3]; [5],4.44 fold
same,Individual variation of gene expression in RA treatment: RARG,[3]; [5],3.37 fold
same,Individual variation of gene expression in RA treatment: RXRA,[3]; [5],4.34 fold
same,Individual variation of gene expression in RA treatment: RXRG,[3]; [5],4.01 fold
same,Individual variation of gene expression in RA treatment: TIMP1,[3]; [5],4.21 fold
same,"MMP1, collagenase 1 expression in RA treatment compared to control, from-to between individuals",[3]; [5],(from −3.38 to 3.71) fold
same,"MMP2 gelatinase expression in RA treatment compared to control, from-to between individuals",[3]; [5],(from −2.7 to 2.35) fold
same,"MMP3 stromelysin expression in RA treatment compared to control, from-to between individuals",[3]; [5],(from −3.73 to 2.67) fold
same,"MMP7 expression in RA treatment compared to control, from-to between individuals",[3]; [5],(from −14.77 to 1.69) fold
same,"MMP10, stromelysin 2 expression in RA treatment compared to control, from-to between individuals",[3]; [5],(from −5.15 to 6.84) fold
same,"MMP19 expression in RA treatment compared to control, from-to between individuals",[3]; [5],(from −2.4 to 1.01) fold
same,"NCOA1 expression in RA treatment compared to control, from-to between individuals",[3]; [5],(from −2.99 to 2.69) fold
same,"NCOA2 expression in RA treatment compared to control, from-to between individuals",[3]; [5],(from −1.95 to 3.68) fold
same,"NCOA3 expression in RA treatment compared to control, from-to between individuals",[3]; [5],(from −2.02 to 4.14) fold
same,"NCOA5 expression in RA treatment compared to control, from-to between individuals",[3]; [5],(from −1.25 to 1.85) fold
same,"NCOA6 expression in RA treatment compared to control, from-to between individuals",[3]; [5],(from −1.44 to 1.99) fold
same,"NCOA7 expression in RA treatment compared to control, from-to between individuals",[3]; [5],(from −1.85 to 2.59) fold
same,"NCOR1 expression in RA treatment compared to control, from-to between individuals",[3]; [5],(from −2.23 to 1.97) fold
same,"PC4 expression in RA treatment compared to control, from-to between individuals",[3]; [5],(from −1.8 to 1.77) fold
same,"PPARG expression in RA treatment compared to control, from-to between individuals",[3]; [5],(from −1.64 to 2.95) fold
same,"RARA expression in RA treatment compared to control, from-to between individuals",[3]; [5],(from −1.53 to 2.91) fold
same,"RARG expression in RA treatment compared to control, from-to between individuals",[3]; [5],(from −1.45 to 1.92) fold
same,"RXRA expression in RA treatment compared to control, from-to between individuals",[3]; [5],(from −1.75 to 2.59) fold
same,"RXRG expression in RA treatment compared to control, from-to between individuals",[3]; [5],(from −2.02 to 1.99) fold
same,"induced or repressed expression of different genes (Col1A1, Col4A1, Elastin, MMP1, MMP7)","[3]; in different fibroblast isolates, 17 individuals, 1 μM, 24 hours",up to 8 fold
same,"variation between individual fibroblasts of expression of coactivators NCOA1, NCOA2 and NCOA3","[3]; in response to atRA, 17 individuals",highest variation
same,COL1A1 mRNA level,[4],2 fold
same,COL1A2 mRNA level,[4],4 fold
same,COL2A1 mRNA level,[4],5 fold
same,COL3A1 mRNA level,[4],2 fold
same,COL4A1 mRNA level,[4],1 fold
same,COL4A2 mRNA level,[4],3 fold
same,COL4A3 mRNA level,[4],2 fold
same,COL4A4 mRNA level,[4],1 fold
same,COL7A1 mRNA level,[4],2 fold
same,Elastin ELN mRNA level,[4],4 fold
same,FBLN5 mRNA level,[4],2 fold
same,FN 1 mRNA level,[4],1 fold
same,Fibrillin-1 mRNA level,[4],1 fold
same,Fibrillin-2 mRNA level,[4],1 fold
same,Fibulin-2 mRNA level,[4],3 fold
same,Lumican mRNA level,[4],1 fold
same,Lysyl oxidase mRNA level,[4],8 fold
same,MMP2 mRNA level,[4],2 fold
same,MMP7 mRNA level,[4],2 fold
same,MMP9 mRNA level,[4],2 fold
same,MMP12 mRNA level,[4],2 fold
same,MMP13 mRNA level,[4],5 fold
same,MMP19 mRNA level,[4],1 fold
same,MMP20 mRNA level,[4],1 fold
same,MMP-11 mRNA level,[4],7 fold
same,TIMP1 mRNA level,[4],2 fold
same,TIMP3 mRNA level,[4],3 fold
same,TIMP4 mRNA level,[4],1 fold
same,aggrecan mRNA level,[4],1 fold
same,decorin mRNA level,[4],6 fold
same,fibromodulin mRNA level,[4],1 fold
